What was measured:
Aβ40 = Aβ40 content secreted by HEK293APP/sw overexpression cells after compound treatment (ELISA of supernatant); assay type: cell-based; conditions: 24 h; for Aβ40 content: APP/293 (HEK293APP/sw) cells, test sample 400 μM, culture supernatant, adjusted by total protein concentration, blank 127.81; for content of Aβ40 compared with benfotiamine in Comparative Example 2: APP/293 cells, 400 μM, in words
Procedure: (§1) (1) A BCA Protein Concentration Kit was purchased from Beyotime Biotechnology, a detection kit for Aβ40 and Aβ42 was purchased from Wako Co., Ltd., and cell culture related reagents were purchased from Gibico Co., Ltd.
(§2) (2) HEK293APP/sw overexpression cell culture: cells were cultured in a 48-well plate in DMEM culture medium (containing 10% FBS, 100 μg/mL G418 (Geneticin) and diabody), 4 mM stock solution of a test sample (prepared by dissolving the test sample in DMEM culture medium) was diluted to 400 μM in DMEM culture medium at a cell density of 70%, to each well was added 500 μL of the test sample, and the cells were cultured for 24 h.
(§3) (3) To the culture solution supernatant was added a BCA reagent, after incubating for 30 min at room temperature, absorbance of each well was measured at OD […] with a microplate reader, and a total protein concentration was calculated according to a protein standard curve; concentrations of Aβ40 and Aβ42 were measured with supernatant: the supernatant was added into a coated 96-well plate, followed by incubating overnight at 4° C., the reagent was removed and washed, HRP (horseradish peroxidase) labeled antibody was added, followed by incubating for 2 h at 4° C., the reagent was removed and washed, a TMB color developing solution was added, followed by incubating for 30 min at room temperature, a stop solution was added to stop reaction, absorbance of each well was measured at OD […] with a microplate reader, concentrations of Aβ40 and Aβ42 were calculated according to standard curves of A40 and Aβ42 respectively, and finally the concentrations of Aβ40 and Aβ42 were adjusted by using a total protein concentration to obtain a final concentration.

Aβ42 = Aβ42 content secreted by HEK293APP/sw overexpression cells after compound treatment (ELISA of supernatant); assay type: cell-based; conditions: 24 h; for Aβ42 content: APP/293 (HEK293APP/sw) cells, test sample 400 μM, culture supernatant, adjusted by total protein concentration, blank 11.08; for content of Aβ42 compared with benfotiamine in Comparative Example 2: APP/293 cells, 400 μM, in words
Procedure: as §1, §2, §3

With `C/C(=C(\CCOP(=O)(O)O)SC(=O)c1ccccc1)N(C=O)Cc1cnc(C)nc1N` [Comparative Example 2, benfotiamine, reference compound] the Aβ40 content (Aβ40) was 53.77 pmol/L and the Aβ42 content (Aβ42) was 5.04 pmol/L.

Work on `CCCC(=O)S/C(CCOP(=O)(O)O)=C(/C)N(C=O)Cc1cnc(C)nc1N` [Example 1, (Z)—S-(2-(N-((4-amino-2-methylpyrimidin-5-yl)methyl) formamido)-5-(phosphonooxy)pent-2-en-3-yl) butanethioate] yielded an Aβ40 content (Aβ40) of 45.47 pmol/L and an Aβ42 content (Aβ42) of 8.59 pmol/L.

`CCCCCCCCCC(=O)S/C(CCOP(=O)(O)O)=C(/C)N(C=O)Cc1cnc(C)nc1N` [Example 2, (Z)—S-(2-(N-((4-amino-2-methylpyrimidin-5-yl)methyl) formamido)-5-(phosphonooxy)pent-2-en-3-yl) decanethioate] gave an Aβ40 content (Aβ40) of 75.15 pmol/L and an Aβ42 content (Aβ42) of 5.37 pmol/L.

In the case of `CCCCCCCCCCCC(=O)S/C(CCOP(=O)(O)O)=C(/C)N(C=O)Cc1cnc(C)nc1N` [Example 3, (Z)—S-(2-(N-((4-amino-2-methylpyrimidin-5-yl)methyl) formamido)-5-(phosphonooxy)pent-2-en-3-yl) dodecanethioate], the Aβ40 content (Aβ40) is reported as 128.90 pmol/L and the Aβ42 content (Aβ42) is reported as 4.93 pmol/L.

In the case of `C/C=C(\C)C(=O)S/C(CCOP(=O)(O)O)=C(/C)N(C=O)Cc1cnc(C)nc1N` [Example 4, (E)-S—((Z)-2-(N-((4-amino-2-methylpyrimidin-5-yl)methyl) formamido)-5-(phosphonooxy)pent-2-en-3-yl) 2-methylbut-2-enethioate], the Aβ40 content (Aβ40) is reported as 71.80 pmol/L and the Aβ42 content (Aβ42) is reported as 5.77 pmol/L.

`CCC(C)C(=O)S/C(CCOP(=O)(O)O)=C(/C)N(C=O)Cc1cnc(C)nc1N` (stereo not drawn) [Example 5, (Z)—S-(2-(N-((4-amino-2-methylpyrimidin-5-yl)methyl) formamido)-5-(phosphonooxy)pent-2-en-3-yl) 2-methylbutanethioate] was tested, and the Aβ40 content (Aβ40) was 37.65 pmol/L, the “content of Aβ40 compared with benfotiamine in Comparative Example 2” value (Aβ40) was “significantly reduced” and the Aβ42 content (Aβ42) was 2.09 pmol/L. For the same compound, the “content of Aβ42 compared with benfotiamine in Comparative Example 2” value (Aβ42) was “significantly reduced”.

With `C/C(=C(\CCOP(=O)(O)O)SC(=O)C(C)C)N(C=O)Cc1cnc(C)nc1N` [Example 6, (Z)—S-(2-(N-((4-amino-2-methylpyrimidin-5-yl)methyl) formamido)-5-(phosphonooxy)pent-2-en-3-yl) 2-methylpropanethioate] the Aβ40 content (Aβ40) was 44.38 pmol/L, the “content of Aβ40 compared with benfotiamine in Comparative Example 2” value (Aβ40) was “significantly reduced” and the Aβ42 content (Aβ42) was 2.41 pmol/L. For the same compound, the “content of Aβ42 compared with benfotiamine in Comparative Example 2” value (Aβ42) was “significantly reduced”.

`CCCCCCCC(=O)S/C(CCOP(=O)(O)O)=C(/C)N(C=O)Cc1cnc(C)nc1N` [Example 7, (Z)—S-(2-(N-((4-amino-2-methylpyrimidin-5-yl)methyl) formamido)-5-(phosphonooxy)pent-2-en-3-yl) octanethioate] was tested, and the Aβ40 content (Aβ40) was 106.81 pmol/L and the Aβ42 content (Aβ42) was 6.09 pmol/L.

With `C/C(=C(\CCOP(=O)(O)O)SC(=O)CCc1ccccc1)N(C=O)Cc1cnc(C)nc1N` [Example 8, (Z)—S-(2-(N-((4-amino-2-methylpyrimidin-5-yl)methyl) formamido)-5-(phosphonooxy)pent-2-en-3-yl) 3-phenylpropanethioate] the Aβ40 content (Aβ40) was 57.86 pmol/L and the Aβ42 content (Aβ42) was 6.38 pmol/L.

In the case of `C=CCCCC(=O)S/C(CCOP(=O)(O)O)=C(/C)N(C=O)Cc1cnc(C)nc1N` [Example 9, (Z)—S-(2-(N-((4-amino-2-methylpyrimidin-5-yl)methyl) formamido)-5-(phosphonooxy)pent-2-en-3-yl) hex-5-enethioate], the Aβ40 content (Aβ40) is reported as 80.40 pmol/L and the Aβ42 content (Aβ42) is reported as 5.70 pmol/L.

With `C/C(=C(\CCOP(=O)(O)O)SC(=O)Cc1c(F)cccc1F)N(C=O)Cc1cnc(C)nc1N` [Example 10, (Z)—S-(2-(N-((4-amino-2-methylpyrimidin-5-yl)methyl) formamido)-5-(phosphonooxy)pent-2-en-3-yl) 2-(2,6-difluorophenyl) ethanethioate] the Aβ40 content (Aβ40) was 71.11 pmol/L and the Aβ42 content (Aβ42) was 10.62 pmol/L.

For `C=CC(C)(C)C(=O)S/C(CCOP(=O)(O)O)=C(/C)N(C=O)Cc1cnc(C)nc1N` [Example 11, (Z)—S-(2-(N-((4-amino-2-methylpyrimidin-5-yl)methyl) formamido)-5-(phosphonooxy)pent-2-en-3-yl) 2,2-dimethylbut-3-enethioate], the Aβ40 content (Aβ40) was 54.75 pmol/L, the “content of Aβ40 compared with benfotiamine in Comparative Example 2” value (Aβ40) was “substantially the same” and the Aβ42 content (Aβ42) was 3.22 pmol/L. For the same compound, the “content of Aβ42 compared with benfotiamine in Comparative Example 2” value (Aβ42) was “reduced”.

With `CCC/C=C/C(=O)S/C(CCOP(=O)(O)O)=C(/C)N(C=O)Cc1cnc(C)nc1N` [Example 12, (E)-S—((Z)-2-(N-((4-amino-2-methylpyrimidin-5-yl)methyl) formamido)-5-(phosphonooxy)pent-2-en-3-yl) hex-2-enethioate] the Aβ40 content (Aβ40) was 32.87 pmol/L, the “content of Aβ40 compared with benfotiamine in Comparative Example 2” value (Aβ40) was “significantly reduced” and the Aβ42 content (Aβ42) was 0.34 pmol/L. The “content of Aβ42 compared with benfotiamine in Comparative Example 2” value (Aβ42) was “significantly reduced”.

For `CCCCC(CC)C(=O)S/C(CCOP(=O)(O)O)=C(/C)N(C=O)Cc1cnc(C)nc1N` (stereo not drawn) [Example 13, (Z)—S-(2-(N-((4-amino-2-methylpyrimidin-5-yl)methyl) formamido)-5-(phosphonooxy)pent-2-en-3-yl) 2-ethylhexanethioate], the Aβ40 content (Aβ40) was 56.28 pmol/L and the Aβ42 content (Aβ42) was 24.36 pmol/L.

Work on `CCCC(C)C(=O)S/C(CCOP(=O)(O)O)=C(/C)N(C=O)Cc1cnc(C)nc1N` (stereo not drawn) [Example 14, (Z)—S-(2-(N-((4-amino-2-methylpyrimidin-5-yl)methyl) formamido)-5-(phosphonooxy)pent-2-en-3-yl) 2-methylpentanethioate] yielded an Aβ40 content (Aβ40) of 60.34 pmol/L and an Aβ42 content (Aβ42) of 6.79 pmol/L.

With `CCCCC(C)C(=O)S/C(CCOP(=O)(O)O)=C(/C)N(C=O)Cc1cnc(C)nc1N` (stereo not drawn) [Example 15, (Z)—S-(2-(N-((4-amino-2-methylpyrimidin-5-yl)methyl) formamido)-5-(phosphonooxy)pent-2-en-3-yl) 2-methylhexanethioate] the Aβ40 content (Aβ40) was 40.39 pmol/L and the Aβ42 content (Aβ42) was 9.59 pmol/L.

Compound `CCC(C)(C)C(=O)S/C(CCOP(=O)(O)O)=C(/C)N(C=O)Cc1cnc(C)nc1N` [Example 16, (Z)—S-(2-(N-((4-amino-2-methylpyrimidin-5-yl)methyl) formamido)-5-(phosphonooxy)pent-2-en-3-yl) 2,2-dimethylbutanethioate] has an Aβ40 content (Aβ40) of 85.96 pmol/L and an Aβ42 content (Aβ42) of 33.70 pmol/L.

`CCCCC(C)(C)C(=O)S/C(CCOP(=O)(O)O)=C(/C)N(C=O)Cc1cnc(C)nc1N` [Example 17, (Z)—S-(2-(N-((4-amino-2-methylpyrimidin-5-yl)methyl) formamido)-5-(phosphonooxy)pent-2-en-3-yl) 2,2-dimethylhexanethioate] gave an Aβ40 content (Aβ40) of 77.22 pmol/L and an Aβ42 content (Aβ42) of 6.24 pmol/L.

— patent publication US11591354B2, “Thiamine compound, preparation method and pharmaceutical composition thereof” (SHANGHAI RAISING PHARMACEUTICAL CO., LTD., priority 2018, dated 2023)
